Measured values: the NIST ThermoML archive (doi:10.1016/j.jct.2013.03.015)

Test: molar heat capacity at constant pressure; xn = mol fraction of the nth substance listed
Settings: 101 kPa, Crystal, relaxation calorimetry - PPMS by Quantum Design

[Cl-].[K+] [potassium chloride] + [Cl-].[Na+]
Settings	molar heat capacity at constant pressure [J/K/mol]
5.041 K, x2 = 0.9	0.0176
5.086 K, x2 = 0.2	0.0361
5.095 K, x2 = 0.1	0.0387
5.409 K, x2 = 0.9	0.0219
5.454 K, x2 = 0.2	0.0452
5.458 K, x2 = 0.1	0.0485
5.793 K, x2 = 0.9	0.027
5.856 K, x2 = 0.2	0.0564
5.879 K, x2 = 0.1	0.0601
6.208 K, x2 = 0.9	0.0335
6.274 K, x2 = 0.2	0.07
6.294 K, x2 = 0.1	0.0738
6.664 K, x2 = 0.9	0.0417
6.728 K, x2 = 0.2	0.0878
6.752 K, x2 = 0.1	0.0936
7.14 K, x2 = 0.9	0.0518
7.176 K, x2 = 0.2	0.1084
7.188 K, x2 = 0.1	0.1141
7.653 K, x2 = 0.9	0.0641
7.691 K, x2 = 0.2	0.1356
7.702 K, x2 = 0.1	0.1425
8.202 K, x2 = 0.9	0.0801
8.238 K, x2 = 0.2	0.1702
8.252 K, x2 = 0.1	0.1787
8.791 K, x2 = 0.9	0.1001
8.829 K, x2 = 0.2	0.215
8.84 K, x2 = 0.1	0.2244
9.422 K, x2 = 0.9	0.1252
9.461 K, x2 = 0.2	0.2712
9.475 K, x2 = 0.1	0.2828
10.1 K, x2 = 0.9	0.157
10.14 K, x2 = 0.2	0.3435
10.15 K, x2 = 0.1	0.357
10.83 K, x2 = 0.9	0.198
10.87 K, x2 = 0.2	0.4354
10.89 K, x2 = 0.1	0.4512
11.61 K, x2 = 0.9	0.2499
11.65 K, x2 = 0.2	0.5511
11.67 K, x2 = 0.1	0.5685
12.45 K, x2 = 0.9	0.3169
12.48 K, x2 = 0.2	0.6946
12.5 K, x2 = 0.1	0.7153
13.34 K, x2 = 0.9	0.4021
13.38 K, x2 = 0.2	0.8732
13.4 K, x2 = 0.1	0.8969
14.23 K, x2 = 0.9	0.51
14.34 K, x2 = 0.2	1.092
14.36 K, x2 = 0.1	1.12
15.33 K, x2 = 0.9	0.6479
15.37 K, x2 = 0.2	1.362
15.39 K, x2 = 0.1	1.395
16.43 K, x2 = 0.9	0.8219
16.47 K, x2 = 0.2	1.691
16.49 K, x2 = 0.1	1.726
17.61 K, x2 = 0.9	1.04
17.65 K, x2 = 0.2	2.087
17.67 K, x2 = 0.1	2.125
18.87 K, x2 = 0.9	1.31
18.91 K, x2 = 0.2	2.55
18.94 K, x2 = 0.1	2.599
20.24 K, x2 = 0.9	1.649
20.26 K, x2 = 0.2	3.105
20.29 K, x2 = 0.1	3.156
21.7 K, x2 = 0.9	2.061
21.71 K, x2 = 0.2	3.756
21.74 K, x2 = 0.1	3.81
23.25 K, x2 = 0.9	2.563
23.26 K, x2 = 0.2	4.514
23.29 K, x2 = 0.1	4.578
24.92 K, x2 = 0.9	3.165
24.93 K, x2 = 0.2	5.396
24.96 K, x2 = 0.1	5.463
26.71 K, x2 = 0.9	3.859
26.72 K, x2 = 0.2	6.429
26.74 K, x2 = 0.1	6.508
28.63 K, x2 = 0.2	7.596
28.64 K, x2 = 0.9	4.716
28.66 K, x2 = 0.1	7.674
30.69 K, x2 = 0.2	8.768
30.7 K, x2 = 0.9	5.671
30.71 K, x2 = 0.1	8.824
32.89 K, x2 = 0.2	10.16
32.9 K, x2 = 0.9	6.785
32.91 K, x2 = 0.1	10.29
35.25 K, x2 = 0.2	11.67
35.27 K, x2 = 0.9	8.039
35.28 K, x2 = 0.1	11.82
37.78 K, x2 = 0.2	13.3
37.81 K, x2 = 0.1	13.48
37.81 K, x2 = 0.9	9.437
40.5 K, x2 = 0.2	15.06
40.52 K, x2 = 0.1	15.25
40.53 K, x2 = 0.9	10.98
43.41 K, x2 = 0.2	16.89
43.43 K, x2 = 0.1	17.11
43.45 K, x2 = 0.9	12.63
46.53 K, x2 = 0.2	18.81
46.57 K, x2 = 0.1	19.04
46.58 K, x2 = 0.9	14.4
49.87 K, x2 = 0.2	20.73
49.91 K, x2 = 0.1	21.01
49.93 K, x2 = 0.9	16.28
53.47 K, x2 = 0.2	22.73
53.5 K, x2 = 0.1	23
53.53 K, x2 = 0.9	18.23
57.32 K, x2 = 0.2	24.73
57.34 K, x2 = 0.1	25.02
57.38 K, x2 = 0.9	20.25
61.44 K, x2 = 0.2	26.7
61.47 K, x2 = 0.1	26.98
61.51 K, x2 = 0.9	22.26
65.86 K, x2 = 0.2	28.67
65.89 K, x2 = 0.1	28.95
65.94 K, x2 = 0.9	24.31
70.6 K, x2 = 0.2	30.6
70.63 K, x2 = 0.1	30.88
70.69 K, x2 = 0.9	26.32
75.67 K, x2 = 0.2	32.39
75.7 K, x2 = 0.1	32.61
75.77 K, x2 = 0.9	28.27
81.11 K, x2 = 0.2	34.17
81.13 K, x2 = 0.1	34.4
81.21 K, x2 = 0.9	30.13
86.93 K, x2 = 0.2	35.85
86.95 K, x2 = 0.1	36.07
87.05 K, x2 = 0.9	32.29
93.14 K, x2 = 0.1	37.49
93.15 K, x2 = 0.2	37.32
93.3 K, x2 = 0.9	34.01
99.83 K, x2 = 0.1	39.05
99.85 K, x2 = 0.2	38.84
100.02 K, x2 = 0.9	35.79
107.02 K, x2 = 0.1	40.33
107.03 K, x2 = 0.2	40.15
107.21 K, x2 = 0.9	37.38
114.72 K, x2 = 0.1	41.63
114.72 K, x2 = 0.2	41.45
114.92 K, x2 = 0.9	38.92
122.97 K, x2 = 0.1	42.71
122.97 K, x2 = 0.2	42.57
123.18 K, x2 = 0.9	40.27
131.81 K, x2 = 0.1	43.7
131.82 K, x2 = 0.2	43.53
132.04 K, x2 = 0.9	41.45
141.3 K, x2 = 0.1	44.69
141.3 K, x2 = 0.2	44.51
141.54 K, x2 = 0.9	42.61
151.45 K, x2 = 0.2	45.39
151.46 K, x2 = 0.1	45.56
151.71 K, x2 = 0.9	43.67
162.35 K, x2 = 0.2	46.18
162.37 K, x2 = 0.1	46.3
162.61 K, x2 = 0.9	44.81
174.02 K, x2 = 0.2	46.93
174.06 K, x2 = 0.1	47.07
174.32 K, x2 = 0.9	45.52
186.55 K, x2 = 0.2	47.5
186.58 K, x2 = 0.1	47.69
186.88 K, x2 = 0.9	46.21
199.96 K, x2 = 0.2	48.19
199.99 K, x2 = 0.1	48.31
200.33 K, x2 = 0.9	47.11
214.35 K, x2 = 0.2	48.72
214.36 K, x2 = 0.1	48.85
214.74 K, x2 = 0.9	47.78
229.74 K, x2 = 0.2	49.19
229.76 K, x2 = 0.1	49.26
230.17 K, x2 = 0.9	48.37
246.25 K, x2 = 0.2	49.8
246.27 K, x2 = 0.1	49.83
246.73 K, x2 = 0.9	49.07
263.91 K, x2 = 0.2	50.18
263.93 K, x2 = 0.1	50.3
264.44 K, x2 = 0.9	49.55
282.86 K, x2 = 0.2	50.68
282.87 K, x2 = 0.1	50.88
283.42 K, x2 = 0.9	50.22
303.12 K, x2 = 0.2	51.21
303.18 K, x2 = 0.1	51.27
303.77 K, x2 = 0.9	50.61
